Earlier results as cited in EP3335699A1, “SELEXIPAG FORMULATION IN LIQUISOLID SYSTEM” (H e x a l Aktiengesellschaft, priority 2016, dated 2018).

Conditions: low solubility and low permeability; b10 refers to crystalline forms

- BCS (Biopharmaceutics Classification System) class: class IV
SMILES: CC(C)N(CCCCOCC(=O)NS(C)(=O)=O)c1cnc(-c2ccccc2)c(-c2ccccc2)n1 [selexipag]
